US20070293559A1, “Orally Administered Agent For Preventing Or Improving Dry Station Of Skin” (priority 2004, published 2007)

Experiments:
HOS:HR-1 mice [1] = assay: Water content of the skin surface (SKICON-200) after oral ingestion in feed; type: in vivo; conditions: CE-2 feed containing 0.5% or 1% by weight of hydroxyproline, two to five weeks of feeding, relative to CE-2 group
Procedure: HOS:HR-1 mice (male, 5 weeks old, purchased from SLC Japan) were used in the test. The breeding conditions were that the room temperature was 22±2° C., the humidity was 35±15% and a feed and water were freely ingested.
Each test group consisted of 10 mice. A commercially available powder feed CE-2 (manufactured by Clea Japan) was fed to mice of the first group, CE-2 containing 0.5% by weight of trans-4-hydroxy-L-proline (hereinafter also referred to simply as hydroxyproline; manufactured by Kyowa Hakko Kogyo Co., Ltd.) was fed to mice of the second group, and CE-2 containing 1% by weight of hydroxyproline was fed to mice of the third group.
The water content of the skin surface on the back thigh upper portion of each mouse was measured with SKICON-200 (manufactured by IBS) every one week, from two weeks to five weeks after the start-up of the feeding of each feed. The measurement was conducted ten times for each mouse, and an average value of each mouse was obtained. Further, an average value of each test group was calculated.
The relative epidermal water content was calculated according to the following formula using the average value. Relative epidermal water content (%)=(A2/A1)×100 • A1: Epidermal water content of the first group • A2: Epidermal water content of the second or third group

HOS:HR-1 mice [2] = assay: Transepidermal water loss (TEWL) in mice with dry skin induced by special feed; type: in vivo; conditions: for TEWL value: right rump, group average
Procedure: HOS:HR-1 mice (female, 4 weeks old, purchased from SLC Japan) were used in the test. The breeding conditions were that the room temperature was 22±2° C., the humidity was 50±5% and a feed and water were freely ingested.
Each test group consisted of 10 mice. A commercially available powder feed CE-2 was fed to mice of the first group, a special feed (manufactured by Nippon Nosan Kogyo K.K.) was fed to mice of the second group, the special feed containing 0.5% by weight of hydroxyproline was fed to mice of the third group, and the special feed containing 1% by weight of hydroxyproline was fed to mice of the fourth group. The dry skin was induced in HOS:HR-1 mice by feeding of the special feed (The journal of international medical research pharmacology, 32, 392-399 (2004)).
A transepidermal water loss (TEWL) value of the right rump of each mouse was measured as an index of a barrier function of stratum corneum at the start-up of the feeding of each feed, after four weeks and after six weeks using Tewameter TM210 (Courage+Khazaka electronic GmbH, Germany), and an average value of each group was calculated.

O=C(O)[C@@H]1C[C@@H](O)CN1 [hydroxyproline, trans-4-hydroxy-L-proline]
water content of the skin (relative epidermal water content, FIG. 1) (HOS:HR-1 mice [1]): markedly improved
transepidermal water loss, t-test in comparison with the second group (HOS:HR-1 mice [2]; fourth group (1% hydroxyproline in special feed), risk rate of less than 5% defined as significant): significant difference
TEWL value (HOS:HR-1 mice [2]; fourth group: special feed containing 1% by weight of hydroxyproline, feeding period 0 week (start-up)): 5.07 g/m^2/hour
TEWL value (HOS:HR-1 mice [2]; fourth group: special feed containing 1% by weight of hydroxyproline, feeding period 4 weeks): 25.07 g/m^2/hour
TEWL value (HOS:HR-1 mice [2]; fourth group: special feed containing 1% by weight of hydroxyproline, feeding period 6 weeks): 25.40 g/m^2/hour
barrier function of stratum corneum (HOS:HR-1 mice [2]; oral ingestion of hydroxyproline): effect of improving the barrier function of stratum corneum
increase in transepidermal water loss (HOS:HR-1 mice [2]; third and fourth groups (0.5% and 1% hydroxyproline in special feed) versus second group (special feed)): suppressed dependently on the concentration
TEWL value (HOS:HR-1 mice [2]; third group: special feed containing 0.5% by weight of hydroxyproline, feeding period 0 week (start-up)): 4.99 g/m^2/hour
TEWL value (HOS:HR-1 mice [2]; third group: special feed containing 0.5% by weight of hydroxyproline, feeding period 4 weeks): 29.80 g/m^2/hour
TEWL value (HOS:HR-1 mice [2]; third group: special feed containing 0.5% by weight of hydroxyproline, feeding period 6 weeks): 29.04 g/m^2/hour
